Measurements from PMC12216609, “Inhibitors of eIF1A-ribosome interaction unveil uORF-dependent regulation of translation initiation and antitumor and antiviral effects” (The EMBO Journal, 2025).
Values joined by “and” are separate entries in the source; they are usually repeats but may differ in a detail not shown here. Identical values can stand only once. Like-named read-outs stand apart in the source and are kept apart here.

How the values were obtained:
[1] = tested on: CUG/GUG vs AUG start codon luciferase reporters in HEK293T cells; test: Near-cognate AUG starting codon fidelity reporter assay (GUG, CUG vs AUG); assay type: cell-based; details: for CUG vs AUG (%): CUG start codon reporter relative to AUG reporter (AUG = 100); for CUG vs AUG (%) / GUG vs AUG (%): compound at 20uM (summary head), single-experiment calculation; for GUG vs AUG (%): GUG start codon reporter relative to AUG reporter (AUG = 100); for average CUG and GUG / average CUG and GUG relative to DMSO / CUG Average / GUG Average: NUG experiment; for CUG Average: CUG vs AUG reporter; for GUG Average: GUG vs AUG reporter; for NUG (Final data, Fig. 1E): average CUG and GUG relative to DMSO, 20 µM overnight; for GUG vs AUG data (%) / GUG vs AUG (%) Average: compound at 20uM; for GUG vs AUG data (%): individual repeat; for GUG vs AUG (%) Average: summary average of repeats, DMSO control average […]
[2] = tested on: regulatory CUG of SARS-CoV-2 ORF7a 5'UTR in HEK293T cells; assay type: cell-based
[3] = tested on: IRF7 5'UTR firefly luciferase reporter in HEK293T cells; details: 20 µM; for Reference vs IRF7 (Final data, Fig. 1E): 1/Result, relative to DMSO; for LONG (summary - All), normalized to DMSO / SHORT (summary - All), normalized to DMSO: individual replicates, outliers excluded, DMSO = 1; for SHORT (summary - All), normalized to DMSO: Short reporter; for average ( long vs short ratio): summary - All;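 on all read-outs here: luciferase signal corrected by a co-transfected GFP reporter for transfection efficiency, read after overnight compound exposure, with Long and Short reporters differing in 5'UTR length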
[4] = target: T1, eIF1A without CTT (Homo sapiens, UniProt P47813); assay type: binding; details: for fluorescence ratio, eIF1A Δ CTT: background-corrected, relative to DMSO or lowest 1Ai concentration, replicate columns
T1 construct: His-bdSUMO (cleaved yes); made in house; host or cells: E. coli (BL-21)

[5] = tested on: uORF-bearing 5'UTR firefly reporters in HEK293T cells; test: uORF reinitiation / leaky scanning firefly reporters; details: for ff/rl, 46 leaky reporter / ff/rl, 46 reporter / ff/rl, normal reporter: single replicates, not normalized to DMSO
Description: (M) The reference and uORF-bearing reporters were transfected to HEK293T cells together with RL, which served to normalize translation efficiency. The reporter activities are represented as firefly vs RL; n ≥3 independent biological replicates, error bars represent SEM. *P < 0.05, **P < 0.01, Student t test. (N) Firefly Reporters (J) were transfected to HEK293T cells together with normalizing RL. […] Results are represented as firefly vs. RL normalized to DMSO in each biological replicate; n = 4, error bars represent SEM. *P < 0.05, **P < 0.01, Student t test.
In the first and second, we inserted an out-of-frame uAUG 46 or 95 nucleotides before the main ORF, respectively, followed by a downstream stop codon generating an uORF of 10 amino acids. In these constructs, the translation from the main ORF could be either by reinitiation or leaky scanning. In the third construct, this out of frame uAUG lacks a stop codon, causing initiation from the main ORF to exclusively occur via leaky scanning (Fig. 4L). These reporters were transfected into HEK293T cells together with RL luciferase reporter for normalizing transfection efficiency. […] We next examined these reporters in the presence of 1Ais.

[6] = target: T2, eIF1A without NTT (Homo sapiens, UniProt P47813); test: Fluorescence binding assay with NTT-truncated eIF1A; details: for fluorescence ratio, eIF1A Δ NTT: background-corrected, relative to DMSO or lowest 1Ai concentration, replicate columns
T2 construct: His-bdSUMO (cleaved yes); made in house; host or cells: E. coli (BL-21)
T2 sequence (P47813 31-144 limits assumed): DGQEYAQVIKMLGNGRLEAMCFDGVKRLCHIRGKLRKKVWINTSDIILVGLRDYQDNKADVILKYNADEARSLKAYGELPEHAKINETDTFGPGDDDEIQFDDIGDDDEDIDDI

T1 sequence (P47813 1-114 limits assumed): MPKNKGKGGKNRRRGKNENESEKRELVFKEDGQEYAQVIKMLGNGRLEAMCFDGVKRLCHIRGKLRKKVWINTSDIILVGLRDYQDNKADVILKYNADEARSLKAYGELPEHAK

SMILES: Cc1ccc(C)n1-c1cc([N+](=O)[O-])ccc1N1CCN(C(=O)c2ccccc2)CC1 [1Ai-9008]
- CUG vs AUG (%) [1]: 13.0714%
- GUG vs AUG (%) [1]: 3.675%
- average CUG and GUG [1]: 8.448
- average CUG and GUG relative to DMSO [1]: 1.873
- CUG Average [1]: 12.6998
- GUG Average [1]: 4.196
- NUG (Final data, Fig. 1E) [1]: 1.873
- GUG vs AUG data (%) [1]: 4.42% and 4.68% and 2.86% and 4.83%
- GUG vs AUG (%) Average [1]: 4.20%
- average (inverted) ([2]; normalized to DMSO = 1.000, mean of 3 reps): 0.875
- CUG/AUG ratio (Renilla/firefly) ([2]; overnight): decreased the CUG/AUG ratio to variable degrees
- FF CTG signal, mean of duplicates ([2]; reps 1-3): 19795.8 and 14760.8 and 12081.3
- FF vs Rluc ([2]; reps 1-3): 47.590 and 44.537 and 48.991
- FF vs Rluc, inverted ([2]; reps 1-3): 0.021 and 0.022 and 0.020
- Rluc ATG signal, mean of duplicates ([2]; reps 1-3): 10881500 and 8214985 and 6662440
- normalized to DMSO ([2]; reps 1-3, DMSO = 1): 0.864 and 0.923 and 0.839
- Reference vs IRF7 (Final data, Fig. 1E) [3]: 0.775
- LONG (summary - All), normalized to DMSO ([3]; Long reporter): 0.81 and 0.44 and 0.52 and 0.48
- SHORT (summary - All), normalized to DMSO [3]: 0.66 and 0.59 and 0.24 and 0.26
- Long: Normalized to average DMSO ([3]; data section, Long reporter, GFP-corrected, per experiment, includes values excluded as outliers): 0.8135 and 0.4384 and 0.5246 and 0.4822
- average ( long vs short ratio) [3]: 1.290

SMILES: O=C(COc1ccccc1[N+](=O)[O-])NCc1ccc(-c2ccc(Br)cc2)o1 [1Ai-4700]
- fluorescence ratio, eIF1A Δ CTT ([4]; 1Ai conc. 0.25 uM): 1.002 and 1.029
- fluorescence ratio, eIF1A Δ CTT ([4]; 1Ai conc. 0.5 uM): 0.8837 and 0.9156
- fluorescence ratio, eIF1A Δ CTT ([4]; 1Ai conc. 1 uM): 0.8554 and 0.8332
- fluorescence ratio, eIF1A Δ CTT ([4]; 1Ai conc. 2 uM): 0.9021 and 0.8902
- fluorescence ratio, eIF1A Δ CTT ([4]; 1Ai conc. 4 uM): 0.8119 and 0.7934
- fluorescence ratio, eIF1A Δ CTT ([4]; 1Ai conc. 8 uM): 0.6359 and 0.584
- fluorescence ratio, eIF1A Δ CTT ([4]; 1Ai conc. 16 uM): 0.7372 and 0.671
- fluorescence ratio, eIF1A Δ CTT ([4]; 1Ai conc. 32 uM): 0.5663 and 0.5472
- fluorescence ratio, eIF1A Δ CTT ([4]; 1Ai conc. 64 uM): 0.381 and 0.3897
- fluorescence ratio, eIF1A Δ CTT ([4]; 1Ai conc. 256 uM): 0.2785 and 0.26
- IC50 ([4]; eIF1A Δ CTT, from the titration data, read-out: IC50 (eIF1A Δ CTT titration block)): 30.2 µM
- IC50 ([4]; summary table, fluorescence binding assay, read-out: IC50 concentration (µM), CTT truncation): 30.2 µM
- effect on uORF / leaky scanning reporters ([5]; 20uM (1Ai-5175 at 5uM), overnight): inhibit the short-distance reinitiation
- normalized to DMSO, 46 leaky, average ([5]; 46 leaky reporter, average of biological repeats): 0.994
- normalized to DMSO, 46 leaky, biological repeats ([5]; 46 leaky reporter, biological repeats 1-4): 0.989 and 1.082 and 1.159 and 0.746
- normalized to DMSO, 46 leaky ([5]; 46 leaky reporter, single replicates 1-8 (two dates)): 0.973 and 1.005 and 1.055 and 1.109 and 1.618 and 0.700 and 0.255 and 1.237
- normalized to DMSO, -46, average ([5]; -46 reporter, average of biological repeats): 0.679
- normalized to DMSO, -46, biological repeats ([5]; -46 reporter, biological repeats 1-4): 0.691 and 0.744 and 0.743 and 0.536
- normalized to DMSO, -46 ([5]; -46 reporter, single replicates 1-8 (two dates)): 0.671 and 0.712 and 0.669 and 0.819 and 1.007 and 0.479 and 0.251 and 0.821
- ff/rl, 46 leaky reporter ([5]; experiment 12.3.24): 3.84E-02 and 3.96E-02 and 4.16E-02 and 4.37E-02
- ff/rl, 46 reporter ([5]; experiment 12.3.24): 1.06E-01 (2×) and 1.12E-01 and 1.29E-01
- ff/rl, normal reporter ([5]; experiment 12.3.24): 2.90E-01 and 2.11E-01 and 2.89E-01 and 2.67E-01
- ff/rl, 46 leaky reporter ([5]; experiment 13.03.24): 1.47E-02 and 6.33E-03 and 2.31E-03 and 1.12E-02
- ff/rl, 46 reporter ([5]; experiment 13.03.24): 2.46E-02 and 1.17E-02 and 6.14E-03 and 2.01E-02
- ff/rl, normal reporter ([5]; experiment 13.03.24): 3.97E-02 and 5.12E-02 and 7.78E-02 and 1.08E-01
- reporter activity norm to DMSO, minus46 ([5]; minus46 reporter, 95nt from uORF to main ORF experiment, Figure 4N source data, replicate experiments, DMSO = 1): 0.3368 and 0.3707
- reporter activity norm to DMSO, minus 95 ([5]; minus 95 (nt) reporter, 95nt from uORF to main ORF experiment, Figure 4N source data, replicate experiments, DMSO = 1): 1.361 and 1.106
- reporter activity norm to DMSO, ref ([5]; ref reporter, 95nt from uORF to main ORF experiment, Figure 4N source data, replicate experiments, DMSO = 1): 0.8256 and 0.6094
- normalized to DMSO, refference, average ([5]; refference reporter, average of biological repeats): 0.908
- normalized to DMSO, refference ([5]; refference reporter, single replicates 1-8 (two dates)): 1.031 and 0.751 and 1.028 and 0.950 and 0.503 and 0.648 and 0.985 and 1.371
- normalized to DMSO, single replicates ([5]; reporter 46, experiment 12.3.24): 6.71E-01 and 7.12E-01 and 6.69E-01 and 8.19E-01
- normalize to DMSO, average ([5]; reporter 46, experiment 12.3.24, DMSO = 1): 0.7177
- normalized to DMSO, single replicates ([5]; reporter 46, experiment 13.3.24): 1.01E+00 and 4.79E-01 and 2.51E-01 and 8.21E-01
- normalize to DMSO, average ([5]; reporter 46, experiment 13.3.24, DMSO = 1): 0.6395
- normalize to DMSO, average ([5]; reporter 46 leaky, experiment 12.3.24, DMSO = 1): 1.036
- normalized to DMSO, single replicates ([5]; reporter 46 leaky, experiment 13.3.24): 1.62E+00 and 7.00E-01 and 2.55E-01 and 1.24E+00
- normalize to DMSO, average ([5]; reporter 46 leaky, experiment 13.3.24, DMSO = 1): 0.9525
- normalized to DMSO, single replicates ([5]; reporter normal (refference), experiment 12.3.24): 1.03E+00 (2×) and 7.51E-01 and 9.50E-01
- normalized to DMSO, single replicates ([5]; reporter normal (refference), experiment 13.3.24): 5.03E-01 and 6.48E-01 and 9.85E-01 and 1.37E+00
- normalize to DMSO, average ([5]; reporter refference, experiment 12.3.24, DMSO = 1): 0.9399
- normalize to DMSO, average ([5]; reporter refference, experiment 13.3.24, DMSO = 1): 0.8765
- inhibitory effect with extended (long) reinitiation distance ([5]; uORF to main ORF distance extended by 49 nt): lost
- CUG vs AUG (%) [1]: 5.455%
- GUG vs AUG (%) [1]: 0.6501%
- average CUG and GUG [1]: 6.461
- average CUG and GUG relative to DMSO [1]: 1.433
- CUG Average [1]: 9.432
- GUG Average [1]: 3.49
- NUG (Final data, Fig. 1E) [1]: 1.433
- GUG vs AUG data (%) [1]: 3.85% and 2.62% and 3.02% and 4.47%
- GUG vs AUG (%) Average [1]: 3.49%
- binding to NTT-truncated eIF1A [6]: significantly decreased
- fluorescence ratio, eIF1A Δ NTT ([6]; 1Ai conc. 0.25 uM): 0.8472 and 0.7714
- fluorescence ratio, eIF1A Δ NTT ([6]; 1Ai conc. 0.5 uM): 0.8794 and 0.8467
- fluorescence ratio, eIF1A Δ NTT ([6]; 1Ai conc. 1 uM): 0.866 and 0.8543
- fluorescence ratio, eIF1A Δ NTT ([6]; 1Ai conc. 2 uM): 0.8713 and 0.8518
- fluorescence ratio, eIF1A Δ NTT ([6]; 1Ai conc. 4 uM): 0.8204 and 0.8417
- fluorescence ratio, eIF1A Δ NTT ([6]; 1Ai conc. 8 uM): 2.437 and 0.8015
- fluorescence ratio, eIF1A Δ NTT ([6]; 1Ai conc. 16 uM): 0.7775 and 0.7663
- fluorescence ratio, eIF1A Δ NTT ([6]; 1Ai conc. 32 uM): 0.7078 and 0.6935
- fluorescence ratio, eIF1A Δ NTT ([6]; 1Ai conc. 64 uM): 0.6729 and 0.5628
- fluorescence ratio, eIF1A Δ NTT ([6]; 1Ai conc. 256 uM): 0.6059 and 0.6683
- IC50 ([6]; eIF1A Δ NTT, from the titration data, read-out: IC50 (eIF1A Δ NTT titration block)): 30.2 µM
- IC50 ([6]; summary table, fluorescence binding assay, read-out: IC50 concentration (µM), NTT truncation): 45.7 µM
- Reference vs IRF7 (Final data, Fig. 1E) [3]: 2.452
- LONG (summary - All), normalized to DMSO ([3]; Long reporter): 0.84 and 0.38 and 0.21 and 0.60
- SHORT (summary - All), normalized to DMSO [3]: 1.10 and 0.65 and 2.34 and 0.87
- average ( long vs short ratio) [3]: 0.408
